# Experimental data reported in US20250025490A1, “INDUCTION OF TRAINED IMMUNITY FOR THE TREATMENT OF HYPERPROLIFERATIVE DISORDERS” (priority 2021, published 2025).
# Tests used:
# peritoneal macrophages [1] = assay: Mitochondrial fission, TMRM confocal microscopy; format: cell-based, mice; settings: Mdivi-1 10 μM
# Procedure: Confocal microscopy. Poly-L-Lysine-treated glass coverslips were added to 12 well plates to which appropriate numbers of macrophages were added along with 2 ml of sterile complete DMEM. Cells were trained with WGP alone or in combination with Mdivi-1 (10 μM) for 7 days as previously described. After 7 days of incubation, the media was removed, and the cells were washed with sterile PBS followed by addition of TMRM dye (Tetramethylrhodamine, methyl ester, Sigma) for 20 min. After incubation, the cells were washed with PBS and fixed with 1 ml of 4% formalin at room temperature for 20-30 min. The cells were washed thrice with PBS and the glass slides were removed carefully with the help of forceps and mounted on the slides using mounting reagents and left overnight to dry at room temperature or stored at 4° C. protecting from the light. The slides were then read using a Nikon Confocal microscope. Mitochondrial fragment lengths were measured by counting at least 100 mitochondria per sample using an Image-J software.
# LLC cells = assay: LDH release cytotoxicity assay against LLC cells; settings: Mdivi-1 10 μM, 10:1
# Procedure: Cytotoxicity assay. Lung IMs from the PBS vs WGP-trained mice were sorted and co-cultured with LLC cells at different ratios in a 96-well plate. The plates were then incubated at 37° C. with 5% CO2 for 12-16 h. Upon completion of incubation, the supernatants were harvested and assayed for the release of lactate dehydrogenase as per the instructions described in the CyQUANT™ LDH Cytotoxicity Assay Kit (Invitrogen). For the cytotoxicity assay in the presence of Mdivi-1 (10 μM) (Sigma Aldrich), peritoneal macrophages were in vitro trained with PBS or WGP in the presence of Mdivi-1 or DMSO for 6 days. The macrophages were then harvested, counted, and co-cultured with LLC cells at a ratio of 10:1 followed by the lactate dehydrogenase assay for cytotoxicity. In another set of experiments, IMs from the lungs of PBS vs WGP-trained mice were harvested, sorted, and co-cultured with LLC cells (10:1) in the presence of N-acetyl-L-Cysteine (NAC, 1 mM) (Sigma Aldrich) or DMSO and assayed for cytotoxicity.
# peritoneal macrophages [2] = assay: In vitro training and re-stimulation of peritoneal macrophages (Example 2), TNF-α ELISA; format: cell-based, mice; settings: Mdivi-1 10 μM
# Procedure: Isolation and culture of peritoneal macrophages. Mice were euthanized with CO2 inhalation and injected i.p. with 5 ml of sterile cold, complete DMEM medium (Sigma Aldrich) followed by gentle massage of the peritoneum. The peritoneal fluid was then collected, centrifuged at 1600 rpm for 5 min. The cell pellet was washed, counted, and plated at appropriate numbers in complete DMEM. The cells were incubated for 2-4 hours at 37° C. and 5% CO2 to allow peritoneal macrophages attached to the plates. The floating cells were aspirated and plates were gently washed with sterile pre-warmed medium and then added with fresh complete DMEM. For comparison studies between different mouse strains, peritoneal cells were stained with viability dye and anti-F4/80 antibodies (Biolegend) and F4/80^+ macrophages were sorted by FACS Aria III (BD Bioscience).
# In vitro training and re-stimulation of peritoneal macrophages. Peritoneal macrophages were treated with 25 μg/ml of WGP or polystyrene beads (3 μm, Sigma-Aldrich) and incubated for 24 h at 37°° C. with 5% CO2. Macrophages were then washed with pre-warmed complete DMEM at least twice to remove excess WGP or polystyrene beads, added with fresh complete DMEM and incubated 6 days. On day 7, macrophages were re-stimulated with different stimuli such as LPS (10 ng/ml) (Sigma), tumor cells, tumor cell culture supernatants (40%) or rMIF (100 ng/ml) (kindly provided by Dr. Robert Mitchell) for 24 h. The culture supernatants were harvested and assayed for TNF-α by ELISA. For cell culture supernatants, tumor cell lines including LLC, B16F10, and EL4, and control cell line MLE-12 were used.
# These cell lines were cultured (1 million/4 ml complete DMEM) in a 6-well plate and incubated for 72 h. The supernatants were harvested and stored at −80° C. in aliquots.
# ELISA for TNF-α and MIF. TNF-α in the culture supernatants was measured using TNF-α ELISA kit (Biolegend) and MIF levels in the culture supernatants were quantified using mouse MIF ELISAkit (R&D Systems) per the manufacturer's instruction.
# In vitro training with S1P. Peritoneal macrophages were stimulated with 200 nM or 300 nM of S1P for 24 h at 37° C. and 5% CO2. The macrophages were then washed and allowed for resting. On day 7, the macrophages were stimulated with LPS (10 ng/ml) or LLC culture supernatant (40%) for 24 h and the supernatants were collected for the quantification of TNF-α using ELISA. For another set of in vitro-training experiment, macrophages were trained with S1P in the presence of Mdivi-1 (10 μM) during S1P training and throughout the resting period. Cells were restimulated with LPS and the supernatants were collected to determine TNF-α levels by ELISA.
# […] The inhibitors were further added to the macrophage cultures and incubated at 37° C. and 5% CO2 for 6 more days. On day 7, the macrophages were washed once with pre-warmed complete DMEM and added LPS (10 ng/ml) or LLC culture supernatant (40%) for re-stimulation.
# peritoneal macrophages [3] = assay: Mitochondrial ROS quantitation (MitoSox Red); format: cell-based, mice; settings: Mdivi-1 50 μM and 75 μM
# Procedure: Mitochondrial ROS quantitation. Peritoneal macrophages were treated with WGP or S1P in the presence or absence of Mdivi-1 and incubated at 37° C. with 5% CO2 for 24 h. The cells were then harvested, washed with PBS and pelleted by centrifugation at 1600 rpm for 5 min at room temperature. The pellets were then stained with MitoSOX Red dye (5 μM) (Invitrogen) at 37° C. for 15 min. The cells were washed with pre-warmed HBSS followed by another wash with PBS at room temperature. The cells were then stained with viability dye and anti-F4/80 and then acquired by flow cytometry. Flow cytometry for p-Drp-1. Peritoneal macrophages were treated with WGP (25 μg/ml) or S1P (1 μM) and incubated at 37° C. with 5% CO2 for 3-4 h. Following the completion of incubation, the cells were quickly washed with cold PBS to stop the activation. The cells were harvested and washed with PBS. The cells were then fixed with 4% formaldehyde for 15 min at room temperature, washed with PBS and permeabilized using ice-cold 100% methanol on ice for a minimum of 10 min. The cells were then stained with primary antibody (p-Drp1) (Cell Signaling) for 1 hour at room temperature followed by secondary antibody (Anti-rabbit IgG) (Biolegend) for 30 min at room temperature as instructed in the Cell Signaling phospho-stain protocol and analyzed using flow cytometry.
smiles,measurement,setting,value
COc1cc(-n2c(=S)[nH]c3ccccc3c2=O)c(Cl)cc1Cl [Mdivi-1],effect on WGP-induced mitochondrial fragmentation,peritoneal macrophages [1],abrogated WGP-induced mitochondrial fragmentation
same,effect on cytotoxicity of WGP-trained peritoneal macrophages,LLC cells,abrogated WGP-mediated mtROS production (FIG. 14D) and cytotoxicity against tumor cells
same,effect on S1P-induced trained immunity (TNF-α),peritoneal macrophages [2]; LPS,abrogated S1P-induced trained immunity
same,effect on WGP-mediated trained responses (TNF-α),peritoneal macrophages [2]; LPS or LLC supernatants,abrogated WGP-mediated trained responses
same,effect on WGP-mediated mtROS production,peritoneal macrophages [3],abrogated WGP-mediated mtROS production
